Measured values: ChEMBL document CHEMBL1201862, “PubChem BioAssay data set” (2004)
Structures can show the parent of a compound that is named as a salt.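 Method: 48-hour compound exposure of cells in 96-well plates, five concentrations, linear interpolation of endpoints. At the GI50, growth is halved.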 Calls of active or inactive are those of the source. Rule as the data show it: active = GI50 up to about 1.1 µM and inactive = higher. Residues, ends and D or L forms follow the SMILES beside them. *: point of attachment. Tfa = O=C(C(F)(F)F)*

What was measured:
Assay in all cases: NCI-60 cell line screen, 48 h
PC-3 = test system: PC-3
NCI-H460 = test system: NCI-H460
HT-29 = test system: HT-29
EKVX = test system: EKVX
NCI-H23 = test system: NCI-H23
M14 = test system: M14
NCI-H226 = test system: NCI-H226
KM12 = test system: KM12
ACHN = test system: ACHN
SF-268 = test system: SF-268
UO-31 = test system: UO-31
OVCAR-3 = test system: OVCAR-3
CCRF-CEM = test system: CCRF-CEM
HL-60 = test system: HL-60
RXF 393 = test system: RXF 393
UACC-257 = test system: UACC-257
SK-OV-3 = test system: SK-OV-3
HCC 2998 = test system: HCC 2998
LOX IMVI = test system: LOX IMVI
NCI-H522 = test system: NCI-H522

Measured: GI50

COc1cc(OC)cc(-c2nc(O)c3ccccc3n2)c1
inactive: PC-3 > 100 µM | NCI-H460 28.3 µM | HT-29 > 100 µM | EKVX > 100 µM | NCI-H23 > 100 µM | M14 > 100 µM | NCI-H226 > 100 µM | KM12 > 100 µM | ACHN > 100 µM | SF-268 63.2 µM | UO-31 71.9 µM | OVCAR-3 > 100 µM | CCRF-CEM > 100 µM | HL-60 > 100 µM | RXF 393 29.8 µM | UACC-257 > 100 µM | SK-OV-3 22.8 µM | HCC 2998 > 100 µM | LOX IMVI > 100 µM

COCOCC1CCCN1CN1CCC[C@H]1COCOC (stereo partly specified)
inactive: PC-3 > 100 µM | NCI-H460 60.5 µM | HT-29 70.6 µM | EKVX > 100 µM | NCI-H23 > 100 µM | M14 > 100 µM | NCI-H522 > 100 µM | NCI-H226 > 100 µM | KM12 > 100 µM | ACHN > 100 µM | SF-268 > 100 µM | UO-31 > 100 µM | OVCAR-3 > 100 µM | CCRF-CEM 39.2 µM | HL-60 17.6 µM | UACC-257 > 100 µM | SK-OV-3 > 100 µM

CC1(C)C=[N+]([O-])C(C)(C)N1
inactive: PC-3 > 100 µM | NCI-H460 > 100 µM | HT-29 > 100 µM | EKVX > 100 µM | NCI-H23 > 100 µM | M14 > 100 µM | NCI-H226 > 100 µM | KM12 > 100 µM | ACHN > 100 µM | SF-268 > 100 µM | UO-31 > 100 µM | OVCAR-3 > 100 µM | CCRF-CEM > 100 µM | HL-60 > 100 µM | RXF 393 > 100 µM | UACC-257 > 100 µM | SK-OV-3 > 100 µM | HCC 2998 > 100 µM | LOX IMVI > 100 µM

Cn1c2c(c3ccccc31)CC(=O)N1CCCCC1C21OCCO1 (stereo unspecified)
inactive: PC-3 > 100 µM | NCI-H460 > 100 µM | HT-29 > 100 µM | EKVX > 100 µM | NCI-H23 > 100 µM | M14 > 100 µM | NCI-H226 > 100 µM | KM12 > 100 µM | ACHN > 100 µM | SF-268 > 100 µM | UO-31 > 100 µM | OVCAR-3 > 100 µM | CCRF-CEM > 100 µM | RXF 393 > 100 µM | UACC-257 > 100 µM | SK-OV-3 > 100 µM | HCC 2998 > 100 µM

COc1ccccc1/C(=N\OCCC(=O)O)c1cccs1
inactive: PC-3 > 100 µM | NCI-H460 > 100 µM | HT-29 > 100 µM | EKVX > 100 µM | NCI-H23 > 100 µM | NCI-H226 > 100 µM | KM12 > 100 µM | ACHN > 100 µM | SF-268 > 100 µM | UO-31 > 100 µM | OVCAR-3 > 100 µM | CCRF-CEM > 100 µM | HL-60 > 100 µM | RXF 393 > 100 µM | UACC-257 > 100 µM | SK-OV-3 > 100 µM | HCC 2998 > 100 µM | LOX IMVI > 100 µM

Cc1cccc2c(N)c3cccc(C(=O)NCC[N+](C)(C)[O-])c3nc12
inactive: PC-3 13.5 µM | HT-29 6.01 µM | EKVX 15.6 µM | NCI-H23 3.76 µM | M14 19.2 µM | NCI-H226 3.05 µM | KM12 > 100 µM | ACHN 2.83 µM | SF-268 1.96 µM | UO-31 21.7 µM | OVCAR-3 16.1 µM | CCRF-CEM 2.49 µM | HL-60 4.05 µM | RXF 393 12.6 µM | UACC-257 20.6 µM | SK-OV-3 14 µM | HCC 2998 10.2 µM | LOX IMVI 10.4 µM
active: NCI-H460 0.538 µM

COC(=O)C(=O)C(C(=O)C(=O)Nc1ccccc1C(=O)OC)c1nc2ccc(C(=O)c3ccccc3)cc2nc1O (stereo unspecified)
inactive: PC-3 40.4 µM | NCI-H460 51.3 µM | HT-29 41.1 µM | EKVX 80.4 µM | NCI-H23 64.3 µM | M14 > 100 µM | NCI-H522 24.1 µM | NCI-H226 > 100 µM | KM12 21.7 µM | ACHN 52.6 µM | SF-268 56.9 µM | UO-31 31.7 µM | OVCAR-3 > 100 µM | HL-60 41 µM | RXF 393 33.4 µM | UACC-257 > 100 µM | SK-OV-3 60.7 µM | LOX IMVI 87.3 µM

COc1ccc(CC2Cc3ccccc3CC(=O)N2)cc1OC (stereo unspecified)
inactive: PC-3 40.3 µM | NCI-H460 42.8 µM | HT-29 > 100 µM | EKVX 89.7 µM | NCI-H23 87.7 µM | M14 54 µM | NCI-H226 43.6 µM | KM12 39.2 µM | ACHN > 100 µM | UO-31 > 100 µM | OVCAR-3 97.3 µM | CCRF-CEM 28.1 µM | HL-60 21.4 µM | UACC-257 47.4 µM | SK-OV-3 > 100 µM | HCC 2998 > 100 µM | LOX IMVI 32.8 µM

CC(C)(C)OC/C=C(\Br)CO
inactive: PC-3 > 100 µM | NCI-H460 > 100 µM | HT-29 > 100 µM | EKVX > 100 µM | NCI-H23 > 100 µM | M14 > 100 µM | NCI-H226 > 100 µM | KM12 41.6 µM | ACHN > 100 µM | SF-268 > 100 µM | UO-31 > 100 µM | OVCAR-3 > 100 µM | CCRF-CEM > 100 µM | RXF 393 > 100 µM | UACC-257 > 100 µM | SK-OV-3 > 100 µM | HCC 2998 > 100 µM

CN(C)CCCNC(=O)c1cc(NC(=O)c2cc(NC(=O)[C@@H]3C[C@H]3C(=O)Nc3cc(C(=O)Nc4cc(C(=O)NCCCN(C)C)n(C)c4)n(C)c3)cn2C)cn1C
inactive: PC-3 > 100 µM | NCI-H460 > 100 µM | HT-29 > 100 µM | EKVX > 100 µM | NCI-H23 > 100 µM | M14 > 100 µM | NCI-H522 > 100 µM | NCI-H226 > 100 µM | KM12 > 100 µM | ACHN > 100 µM | SF-268 > 100 µM | CCRF-CEM > 100 µM | HL-60 > 100 µM | UACC-257 > 100 µM | HCC 2998 20.9 µM | LOX IMVI > 100 µM

CCOC(=O)c1cc(NC(=O)N(CCC#N)CCN(C(=O)N[C@@H](Cc2ccccc2)C(=O)N[C@@H](CC(C)C)C(=O)NC)c2ccccc2)ccc1OC
inactive: PC-3 49.4 µM | EKVX 63.1 µM | NCI-H23 37.3 µM | M14 99.5 µM | NCI-H226 35.5 µM | KM12 > 100 µM | ACHN 25.3 µM | SF-268 48.5 µM | UO-31 34.4 µM | OVCAR-3 40.9 µM | CCRF-CEM 89.9 µM | RXF 393 23.1 µM | UACC-257 24 µM | SK-OV-3 70 µM | HCC 2998 35.1 µM | LOX IMVI 18.2 µM

CC(C)CC(N)C(=O)NC(C(=O)NC(CCCNC(=N)N)C(=O)NC(CS)C(=O)NC1CSCC(C(=O)NC(Cc2ccccc2)C(=O)NC(C(=O)NC(CCCNC(=N)N)C(=O)O)C(C)C)NC(=O)C2CCCN2C(=O)C(CCCCN)NC(=O)C2CCCN2C(=O)C2CCCN2C(=O)C(Cc2ccc(O)cc2)NC(=O)C(CO)NC(=O)C(CCCCN)NC(=O)C(C(C)O)NC(=O)C(Cc2c[nH]c3ccccc23)NC1=O)C(C)C (stereo unspecified)
inactive: PC-3 > 25 µM | HT-29 > 25 µM | EKVX > 25 µM | NCI-H23 > 25 µM | M14 > 25 µM | NCI-H522 > 25 µM | NCI-H226 > 25 µM | KM12 > 25 µM | ACHN > 25 µM | SF-268 > 25 µM | UO-31 > 25 µM | OVCAR-3 > 25 µM | CCRF-CEM > 25 µM | HL-60 > 25 µM | UACC-257 > 25 µM | SK-OV-3 > 25 µM | LOX IMVI > 25 µM

O=CN1CCN(C(=O)c2ccco2)C1=S
inactive: PC-3 7.29 µM | NCI-H460 12.4 µM | HT-29 11.3 µM | EKVX 17.6 µM | NCI-H23 15.6 µM | M14 8.85 µM | NCI-H522 3.67 µM | NCI-H226 22.9 µM | KM12 6.18 µM | ACHN 10 µM | SF-268 7.05 µM | UO-31 4.49 µM | OVCAR-3 4.39 µM | CCRF-CEM 3.7 µM | HL-60 3.46 µM | RXF 393 6.64 µM | UACC-257 12.1 µM | SK-OV-3 24.3 µM | LOX IMVI 3.72 µM

O=C(O)CC(NC(=O)C(F)(F)F)C(=O)NC(Cc1ccc(O)cc1)C(=O)O (stereo not drawn) (Tfa-Asp-Tyr-OH; configuration not given here)
inactive: PC-3 > 50 µM | NCI-H460 > 50 µM | HT-29 > 50 µM | EKVX > 50 µM | NCI-H23 > 50 µM | M14 > 50 µM | NCI-H522 > 50 µM | NCI-H226 > 50 µM | KM12 > 50 µM | ACHN > 50 µM | SF-268 > 50 µM | UO-31 > 50 µM | OVCAR-3 > 50 µM | RXF 393 > 50 µM | UACC-257 > 50 µM | SK-OV-3 > 50 µM | HCC 2998 > 50 µM

OB1OCc2ccccc21 [BENZOXABOROLE]
inactive: PC-3 20 µM | NCI-H460 34.7 µM | HT-29 26.7 µM | NCI-H23 36.7 µM | M14 55.3 µM | NCI-H226 39.5 µM | KM12 65.9 µM | SF-268 42.2 µM | UO-31 32.4 µM | OVCAR-3 60.4 µM | CCRF-CEM 18 µM | HL-60 > 100 µM | UACC-257 28.6 µM | SK-OV-3 16.1 µM | LOX IMVI 39 µM
